Source: patent US20230285371A1 (THE SECOND XIANGYA HOSPITAL OF CENTRAL SOUTH UNIVERSITY, priority 2020, published 2023)
Values joined by “and” are separate entries in the source; they are usually repeats but may differ in a detail not shown here. Identical values can stand only once. Marks after values point to notes of the source that are not given here.

Columns and labels:
[1] = tested on: Th1 cell marker genes (Tbet and IFNγ) and pro-inflammatory cytokines (IL-1β, IL-6 and TNF-α) in the pancreas; assay: Gene expression in pancreas of NOD mice, RT-PCR; format: in vivo
Text: (§1) From the age of 10 weeks, the mice were gavaged for 4 weeks, and injected with cyclophosphamide after the gavage for two weeks to induce the onset of the disease.

Naive CD4+ T cells = assay: Cytotoxicity to T cells: cell count after 48 hours; format: cell-based, C57BL/6J mice
[2] = tested on: female NOD mice (type 1 diabetes induced by cyclophosphamide); assay: Prevention of cyclophosphamide-induced type 1 diabetes in NOD mice; format: in vivo; details: cyclophosphamide-induced T1D
Text: (§2) I. Materials and Methods • 1. Mice: The most widely used spontaneous type 1 diabetes mouse model for the study of type 1 diabetes—NOD mice were selected. Since the incidence rate of spontaneous type 1 diabetes in female NOD mice is much higher than that in male mice, female NOD mice were used for experiments in the present invention. The female NOD mice of the present invention were purchased from Shanghai Model Organisms Center, Inc. • 2. Preparation of medicine: Carboxymethylcellulose (CMC) was used as the solvent. […] Injection of cyclophosphamide: 300 mg/kg body weight of cyclophosphamide was injected into NOD mice so as to rapidly induce the onset of type 1 diabetes. • 5. Measurement of blood sugar: About 1 mm of the tail tip of the mice was cut off, the first drop of blood was wiped off with gauze, then the second drop of blood flew out naturally, which was drawn with a blood sugar test strip, and the reading was recorded. It can be diagnosed type 1 diabetes when two consecutive blood sugar readings were both >250 mg/dl. • 6. […] After 4 weeks of gavage, each mouse was injected with cyclophosphamide to induce the onset of type 1 diabetes, and the incidence rate of type 1 diabetes in the mice was observed and counted.

[3] = tested on: differentiation of Th1 cells induced by IL-12 (Naive CD4+ T cells); assay: In vitro inhibition assay: IL-12-induced Th1 differentiation, flow cytometry; format: cell-based, C57BL/6J mice; details: for Th1 (%) Average / Th1 (%): IL-12, 48 hours; for Th1 (%) Average: average of 3 wells; for Th1 (%): individual parallel wells
Protocol: C57BL/6J mice were sacrificed, the spleen was taken and disrupted in PBS containing 2% fetal bovine serum (FBS). The cell suspension was filtered through a 70 μm nylon filter to remove tissue debris. The obtained cell suspension was centrifuged at 300 g for 10 min, and the cells were resuspended in PBS containing 2% fetal bovine serum (FBS) to maintain a cell concentration of 1×10^8 nucleated cells/mL. Naive CD4+ T cells were extracted with the EasySep™ Mouse Naive CD4+ T Cell Isolation Kit ([…] Technologies), and the extracted Naive CD4+ T cells were cultured in RPMI-1640 medium (Gibco) containing 10% fetal bovine serum (Gibco) and 1% penicillin/streptomycin (Gibco).
The cells were collected after 48 hours, and subjected to flow cytometry to detect the proportion of Th1 cells.

[4] = tested on: female NOD mice (spontaneous type 1 diabetes); assay: Prevention of spontaneous type 1 diabetes in NOD mice; format: in vivo; details: spontaneous T1D
Text: as §2

[5] = tested on: CD4+ T cell subsets (Th1, Th2, Th17 and Treg) in the pancreas; assay: CD4+ T cell subsets in pancreas of NOD mice, flow cytometry; format: in vivo
Text: as §1

STAT4 and p-STAT4 = assay: STAT4 phosphorylation in IL-12-treated Naive CD4+ T cells, western blot; format: cell-based, C57BL/6J mice; details: IL-12, 48 hours
Protocol: The cells were collected after 48 hours to extract proteins for western blot (WB) to detect the protein levels of STAT4 and p-STAT4.

NOD mice (insulitis) = details: gavage once a day for 4 weeks from 8 weeks of age, nondiabetic mice, HE staining
[6] = Sorafenib group vs solvent group
[7] = relative to vehicle, individual mice
[8] = gavage 4 weeks, cyclophosphamide after 2 weeks, individual values

## Sorafenib
[1]; P<0.05 vs vehicle (1)
  IFNγ gene expression level in pancreas, Average: 0.27*
  Il-1β gene expression level in pancreas, Average: 0.37*
  TNFα gene expression level in pancreas, Average: 0.27*
[1]; P<0.1 vs vehicle (1.04)
  Tbet gene expression level in pancreas, Average: 0.44^+
[1]; [6]
  gene expression levels of Th1 cell marker genes (Tbet and IFNγ) and pro-inflammatory cytokines (IL-1β, IL-6 and TNF-α) in the pancreas: significantly reduced
[1]; [7]
  IFNγ gene expression level in pancreas: 0.16 and 0.07 and 0.58
  IL-6 gene expression level in pancreas: 0.64 and 0.12
  Il-1β gene expression level in pancreas: 0.48 and 0.18 and 0.46
  TNFα gene expression level in pancreas: 0.18 and 0.07 and 0.55
  Tbet gene expression level in pancreas: 0.27 and 0.2 and 0.86
[1]; vehicle 1
  IL-6 gene expression level in pancreas, Average: 0.38
Naive CD4+ T cells; Sorafenib 1 μg/ml, 0 μg/ml control 9.47
  Th0 (×10^4) Average: 9.33 ×10^4
Naive CD4+ T cells; Sorafenib 2 μg/ml
  Th0 (×10^4) Average: 8.1 ×10^4
Naive CD4+ T cells; Sorafenib 4 μg/ml
  Th0 (×10^4) Average: 8 ×10^4
[2]; 10 mg/kg gavage for 7 weeks, day 105
  Survival rate (%): 94.12%
[2]; 10 mg/kg gavage for 7 weeks, day 112
  Survival rate (%): 88.24%
[2]; 10 mg/kg gavage for 7 weeks, day 119
  Survival rate (%): 82.35%
[2]; 10 mg/kg gavage for 7 weeks, day 126
  Survival rate (%): 76.47%
[2]; 10 mg/kg gavage for 7 weeks, day 140, P<0.05 vs vehicle (35.71)
  Survival rate (%): 76.47* %
[2]; 10 mg/kg gavage once a day from 8 weeks of age for 7 weeks, cyclophosphamide 300 mg/kg after 4 weeks, n=17, day 0
  Survival rate (%): 100%
[2]; gavage stopped after 7 weeks
  preventive effect still existed after the gavage was stopped, lasted to: 20 weeks
[2]; more than half of the CMC group developed T1D
  incidence rate of type 1 diabetes: 24%
[3]; 0, 1, 2, 4 μg/ml, 48 hours
  effect on IL-12-induced Th1 differentiation: inhibit IL-12-induced Th1 differentiation in a dose-dependent manner
[3]; Sorafenib 1 μg/ml, 0 μg/ml control 85.27
  Th1 (%) Average: 80.43%
[3]; Sorafenib 1 μg/ml
  Th1 (%): 77.9% and 76% and 87.4%
[3]; Sorafenib 2 μg/ml, P<0.01 vs 0 μg/ml
  Th1 (%) Average: 68.53** %
[3]; Sorafenib 2 μg/ml
  Th1 (%): 67.8% and 68.5% and 69.3%
[3]; Sorafenib 4 μg/ml, P<0.001 vs 0 μg/ml
  Th1 (%) Average: 15.66*** %
[3]; Sorafenib 4 μg/ml
  Th1 (%): 24.9% and 12.9% and 9.17%
[4]; 10 mg/kg gavage once a day for 12 weeks, day 98
  Survival rate (%): 91.30%
[4]; 10 mg/kg gavage once a day for 12 weeks, day 119
  Survival rate (%): 73.91%
[4]; 10 mg/kg gavage once a day for 12 weeks, day 140
  Survival rate (%): 65.22%
[4]; 10 mg/kg gavage once a day for 12 weeks, day 154
  Survival rate (%): 60.87%
[4]; 10 mg/kg gavage once a day for 12 weeks, day 168
  Survival rate (%): 52.17%
[4]; 10 mg/kg gavage once a day for 12 weeks, day 224, P<0.1 vs vehicle (25)
  Survival rate (%): 52.17^+ %
[4]; 10 mg/kg gavage once a day from 8 weeks of age for 12 weeks, n=23, day 0
  Survival rate (%): 100%
[4]; at 32 weeks of age, CMC group 75%
  incidence rate of type 1 diabetes: 48%
[5]; [6]
  proportion of Th1 cells in the pancreas: significantly reduced
  proportions of other T cell subsets in the pancreas: remained unchanged
[5]; gavage 4 weeks from 10 weeks of age, cyclophosphamide after 2 weeks, individual values
  Th1 (%) in pancreas: 6.63% and 3.58%
[5]; gavage 4 weeks, cyclophosphamide after 2 weeks, P<0.05 vs vehicle (21.2)
  Th1 (%) in pancreas, Average: 5.11* %
[5]; [8]
  Th2 (%) in pancreas: 9.75% and 12.9% and 7.91%
  Th17 (%) in pancreas: 3.28% and 0.68% and 1.19%
  Tregs (%) in pancreas: 4.6% and 4.31% and 2.25% and 4.37%
[5]; gavage 4 weeks, cyclophosphamide after 2 weeks, vehicle 1.31
  Th17 (%) in pancreas, Average: 1.72%
[5]; gavage 4 weeks, cyclophosphamide after 2 weeks, vehicle 4.345
  Tregs (%) in pancreas, Average: 3.88%
[5]; gavage 4 weeks, cyclophosphamide after 2 weeks, vehicle 9.45
  Th2 (%) in pancreas, Average: 10.19%
STAT4 and p-STAT4
  effect on phosphorylation of STAT4: can inhibit the phosphorylation of STAT4
NOD mice (insulitis)
  insulitis compared with the CMC group: significantly improved
